In this assay the test system is CD2F1 mice, L1210 leukemia ip, survival T/C. The assay is described as follows: NCI In Vivo Anticancer Drug Screen. Data for tumor model L1210 Leukemia (intraperitoneal) in CD2F1 (CDF1) mice. The note with it: higher = longer survival. In short, it runs like this:
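Activity against a transplanted murine tumor was judged by comparing the compound group with a vehicle group. The outcome in the treated animals was divided by that in the controls.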

[1] abbreviates: endpoint: mean survival time, dose: 100.0 mg/kg/injection, schedule: Q01DX001 (ip), vehicle: saline with Tween-80.
The mark [2] stands for this setting: endpoint: mean survival time, dose: 200.0 mg/kg/injection, schedule: Q01DX001 (ip), vehicle: saline with Tween-80.
[3] abbreviates: endpoint: mean survival time, dose: 400.0 mg/kg/injection, schedule: Q01DX001 (ip), vehicle: saline with Tween-80.
[4] abbreviates: endpoint: mean survival time, dose: 100.0 mg/kg/injection, schedule: Q04DX003 (ip), vehicle: saline with Tween-80.
[5] abbreviates: endpoint: mean survival time, dose: 200.0 mg/kg/injection, schedule: Q04DX003 (ip), vehicle: saline with Tween-80.
[6] abbreviates: endpoint: mean survival time, dose: 400.0 mg/kg/injection, schedule: Q04DX003 (ip), vehicle: saline with Tween-80.
[7] abbreviates: endpoint: mean survival time, dose: 100.0 mg/kg/injection, schedule: Q04DX002 (ip), vehicle: saline with Tween-80.
The mark [8] stands for this setting: endpoint: mean survival time, dose: 200.0 mg/kg/injection, schedule: Q04DX002 (ip), vehicle: saline with Tween-80.
[9] abbreviates: endpoint: mean survival time, dose: 400.0 mg/kg/injection, schedule: Q04DX002 (ip), vehicle: saline with Tween-80.
[10] abbreviates: endpoint: mean survival time, dose: 100.0 mg/kg/injection, schedule: Q01DX009 (ip), vehicle: saline with Tween-80.

Inconclusive results and toxic doses are left out.

As for `C[NH-].C[NH-].[Br][Pt+2][Br]`, the T/C is 106 % of control (endpoint: mean survival time, dose: 1.25 mg/kg/injection, schedule: Q04DX003 (ip), vehicle: water); 108 % of control (endpoint: mean survival time, dose: 2.5 mg/kg/injection, schedule: Q04DX003 (ip), vehicle: water); 110 % of control (endpoint: mean survival time, dose: 5.0 mg/kg/injection, schedule: Q04DX003 (ip), vehicle: water); 97 % of control (endpoint: mean survival time, dose: 10.0 mg/kg/injection, schedule: Q04DX003 (ip), vehicle: water).
`O=c1cc(NCCCc2ccccc2)[nH]c(=O)[nH]1`: the T/C was 100 % of control under setting [1], 92 % of control under setting [2] and 93 % of control under setting [3].
Turning to `Cc1c(-c2ccc3c(c2)OCO3)no[n+]1[O-]`, the T/C by setting is: under setting [4], 91 % of control; under setting [5], 98 % of control; under setting [6], 88 % of control.
For `O=C(/C=C(/c1ccccc1)P(=O)(c1ccccc1)c1ccccc1)c1ccccc1`, in that order: 98 % of control, 93 % of control and 88 % of control.
On to `CN(C)/N=C(\CBr)c1ccccc1`, for which the T/C by setting is: (endpoint: mean survival time, dose: 50.0 mg/kg/injection, schedule: Q01DX009 (ip), vehicle: saline sonified) 96 % of control; (endpoint: mean survival time, dose: 100.0 mg/kg/injection, schedule: Q01DX001 (ip), vehicle: saline) 102 % of control; (endpoint: mean survival time, dose: 100.0 mg/kg/injection, schedule: Q01DX009 (ip), vehicle: saline sonified) 103 % of control; (endpoint: mean survival time, dose: 200.0 mg/kg/injection, schedule: Q01DX001 (ip), vehicle: saline) 100 % of control.
For `COc1cc2c(c(OC)c1OC)-c1ccc(OC)c(=O)cc1[C@@H](NC(=O)CF)CC2`, the T/C (endpoint: mean survival time, dose: 0.37 mg/kg/injection, schedule: Q01DX009 (ip), vehicle: saline) was 109 % of control.
On to `COc1ccc(NC(=O)Oc2ccc(SC)cc2)cc1`, for which the T/C is, setting by setting: under setting [7], 98 % of control; under setting [8], 102 % of control; under setting [9], 98 % of control.
`CC([NH-])C[NH-].[Cl][Pt+2][Cl]` (stereo not given): the T/C is 105 % of control (endpoint: mean survival time, dose: 0.31 mg/kg/injection, schedule: Q01DX009 (ip), vehicle: saline with Tween-80); 107 % of control (endpoint: mean survival time, dose: 0.62 mg/kg/injection, schedule: Q01DX009 (ip), vehicle: saline with Tween-80); 112 % of control (endpoint: mean survival time, dose: 1.25 mg/kg/injection, schedule: Q01DX009 (ip), vehicle: saline with Tween-80); 105 % of control (endpoint: mean survival time, dose: 2.5 mg/kg/injection, schedule: Q01DX009 (ip), vehicle: saline with Tween-80); 115 % of control (endpoint: mean survival time, dose: 2.5 mg/kg/injection, schedule: Q04DX003 (ip), vehicle: saline with Tween-80); 86 % of control (endpoint: mean survival time, dose: 5.0 mg/kg/injection, schedule: Q01DX009 (ip), vehicle: saline with Tween-80). Moreover, the T/C (endpoint: mean survival time, dose: 5.0 mg/kg/injection, schedule: Q04DX003 (ip), vehicle: saline with Tween-80) is 115 % of control.
As to `CC1=C/C(=N/Nc2ccc([N+](=O)[O-])cc2[N+](=O)[O-])CC(C)(C)C1`, the T/C was 92 % of control under setting [1], 90 % of control under setting [2] and 95 % of control under setting [3].
As for `CC(=O)C(C)N(C)C` (stereo not given), the T/C is, setting by setting: (endpoint: mean survival time, dose: 100.0 mg/kg/injection, schedule: Q04DX003 (ip), vehicle: saline) 105 % of control; (endpoint: mean survival time, dose: 200.0 mg/kg/injection, schedule: Q04DX003 (ip), vehicle: saline) 100 % of control; (endpoint: mean survival time, dose: 400.0 mg/kg/injection, schedule: Q04DX003 (ip), vehicle: saline) 96 % of control.
For `CC1(C)CC(O)(Cc2ccccc2)C(C)(O)c2ccccc21` (stereo not given), the T/C runs as follows: under setting [10], 102 % of control; (endpoint: mean survival time, dose: 200.0 mg/kg/injection, schedule: Q01DX009 (ip), vehicle: saline with Tween-80) 88 % of control; (endpoint: mean survival time, dose: 400.0 mg/kg/injection, schedule: Q01DX009 (ip), vehicle: saline with Tween-80) 86 % of control.
For the molecule `O/N=C/C1CCCC[N-]1.O/N=C/C1CCCC[N-]1.O/N=C/C1CCCC[N-]1.[Cu]` (stereo not given), the T/C is, setting by setting: (endpoint: median survival time, dose: 0.75 mg/kg/injection, schedule: Q03HX024 (ip), vehicle: saline) 95 % of control; (endpoint: median survival time, dose: 1.5 mg/kg/injection, schedule: Q03HX024 (ip), vehicle: saline) 95 % of control; (endpoint: median survival time, dose: 6.0 mg/kg/injection, schedule: Q03HX024 (ip), vehicle: saline) 104 % of control; (endpoint: median survival time, dose: 8.0 mg/kg/injection, schedule: Q03HX024 (ip), vehicle: saline) 179 % of control.
For `O=c1[nH]ccc2occc12`, the T/C runs as follows: (endpoint: mean survival time, dose: 50.0 mg/kg/injection, schedule: Q01DX009 (ip), vehicle: saline with Tween-80) 101 % of control; under setting [10], 102 % of control; under setting [4], 105 % of control; under setting [5], 109 % of control.
Turning to `NC(=O)N/N=C1/CC2CC1C1C=CCC21` (stereo not given), the T/C runs as follows: under setting [7], 102 % of control; under setting [8], 107 % of control; under setting [9], 98 % of control.
`CC(C)[C@]12O[C@H]1[C@@H]1O[C@]13[C@]1(O[C@H]1C[C@H]1C4=C(CC[C@@]13C)C(=O)OC4)[C@@H]2O`: the T/C is 96 % of control (endpoint: mean survival time, dose: 0.8 micrograms/kg/injection, schedule: Q01DX009 (ip), vehicle: saline + alcohol); 91 % of control (endpoint: mean survival time, dose: 1.6 micrograms/kg/injection, schedule: Q01DX009 (ip), vehicle: saline + alcohol); 93 % of control (endpoint: mean survival time, dose: 6.3 micrograms/kg/injection, schedule: Q01DX009 (ip), vehicle: saline + alcohol); 95 % of control (endpoint: mean survival time, dose: 12.5 micrograms/kg/injection, schedule: Q01DX009 (ip), vehicle: saline + alcohol); 96 % of control (endpoint: mean survival time, dose: 25.0 micrograms/kg/injection, schedule: Q01DX009 (ip), vehicle: saline + alcohol); 90 % of control (endpoint: mean survival time, dose: 50.0 micrograms/kg/injection, schedule: Q01DX009 (ip), vehicle: saline + alcohol). The T/C is, setting by setting: (endpoint: mean survival time, dose: 100.0 micrograms/kg/injection, schedule: Q01DX009 (ip), vehicle: saline + alcohol) 110 % of control; (endpoint: median survival time, dose: 0.02 mg/kg/injection, schedule: Q03HX024 (ip), vehicle: saline + alcohol) 111 % of control; (endpoint: median survival time, dose: 0.03 mg/kg/injection, schedule: Q03HX024 (ip), vehicle: saline + alcohol) 120 % of control; (endpoint: median survival time, dose: 0.06 mg/kg/injection, schedule: Q01DX009 (ip), vehicle: saline + alcohol) 104 % of control; (endpoint: median survival time, dose: 0.06 mg/kg/injection, schedule: Q01DX009 (sc), vehicle: saline + alcohol) 112 % of control; (endpoint: median survival time, dose: 0.13 mg/kg/injection, schedule: Q01DX009 (ip), vehicle: saline + alcohol) 120 % of control. In addition, the T/C is, setting by setting: (endpoint: median survival time, dose: 0.13 mg/kg/injection, schedule: Q01DX009 (sc), vehicle: saline + alcohol) 104 % of control; (endpoint: median survival time, dose: 0.25 mg/kg/injection, schedule: Q04DX003 (ip), vehicle: saline + alcohol) 112 % of control; (endpoint: median survival time, dose: 0.25 mg/kg/injection, schedule: Q08DX002 (ip), vehicle: saline + alcohol) 107 % of control; (endpoint: median survival time, dose: 0.5 mg/kg/injection, schedule: Q01DX001 (sc), vehicle: saline + alcohol) 105 % of control; (endpoint: median survival time, dose: 0.5 mg/kg/injection, schedule: Q04DX003 (ip), vehicle: saline + alcohol) 120 % of control; (endpoint: median survival time, dose: 0.5 mg/kg/injection, schedule: Q08DX002 (ip), vehicle: saline + alcohol) 115 % of control. For the same molecule, the T/C is, setting by setting: (endpoint: median survival time, dose: 1.0 mg/kg/injection, schedule: Q01DX001 (sc), vehicle: saline + alcohol) 107 % of control; (endpoint: median survival time, dose: 1.0 mg/kg/injection, schedule: Q04DX003 (ip), vehicle: saline + alcohol) 110 % of control; (endpoint: median survival time, dose: 1.0 mg/kg/injection, schedule: Q08DX002 (ip), vehicle: saline + alcohol) 116 % of control.
As for `COc1ccc(CNCCO)cc1OC`, the T/C is 90 % of control (endpoint: median survival time, dose: 25.0 mg/kg/injection, schedule: Q04DX003 (ip), vehicle: saline); 90 % of control (endpoint: median survival time, dose: 50.0 mg/kg/injection, schedule: Q04DX003 (ip), vehicle: saline); 90 % of control (endpoint: median survival time, dose: 100.0 mg/kg/injection, schedule: Q04DX003 (ip), vehicle: saline); 100 % of control (endpoint: median survival time, dose: 200.0 mg/kg/injection, schedule: Q04DX003 (ip), vehicle: saline).
Regarding `C/C=C1\CC2C=CC1C2` (stereo not given) (tested in a mixture with another compound), the T/C was 98 % of control (endpoint: mean survival time, dose: 80.5 mg/kg/injection, schedule: Q01DX009 (ip), vehicle: saline with Tween-80) and 87 % of control (endpoint: mean survival time, dose: 161.0 mg/kg/injection, schedule: Q01DX009 (ip), vehicle: saline with Tween-80).

(Values after PubChem BioAssay AID256 (DTP/NCI, 2004).)
